Results: publication PMC9948168, “Vanillin-Based Indolin-2-one Derivative Bearing a Pyridyl Moiety as a Promising Anti-Breast Cancer Agent via Anti-Estrogenic Activity” (ACS Omega, 2023)
Like-named read-outs stand apart in the source and are kept apart here.

Key:
[1] = system: MCF-7 breast cancer cells; design: method as in doi:10.1016/j.bionut.2013.04.001; settings: cited from earlier work
[2] = system: estrogen-induced uterotrophic effect; assay: In vivo anti-estrogenic (anti-uterotrophic) activity, immature rat model; design: species or system Wistar immature female rats; settings: oral, 20 mg/kg (tamoxifen 20 mg/kg/day, 6j equimolar per method), 3 days, with estradiol 10 μg/kg/day s.c.; immature female rats
Description: The anti-estrogenic activity was assessed as previously described.[65]−[67] All experiments were carried out in accordance with the recommendations of the […] Animal Care and Use Committee. The experimental protocol was approved by “The Commission on the Ethics of Scientific Research”, Faculty of Pharmacy, Minia University (no. ES30/2021). 20-day-old Wistar immature female rats (40–50 g) from the animal care facility of Nahda University at Beni Suef (NUB) were allowed to acclimatize to lab conditions for 3 days before the experiment with free access to food and water. Estradiol was diluted in olive oil and subcutaneously injected on the loose dorsal skin in a dose of 10 μg/kg/day. […] Both compounds were dissolved in a mixture of DMSO, Tween 20, and saline (1:1:8, respectively) and orally administered. The rats were randomly assigned to […] (n = 6) subjected to daily s.c. injections of estradiol, except for the control group. […] On the 4th day, all rats were sacrificed by cervical dislocation, and the uteri were dissected free of fat and weighed immediately. […] The results were expressed as percent inhibition from the formula [drawing 1] […] It is noteworthy that doses of the tested compounds are calculated on a molar basis. […] Values are expressed as mean ± SEM.

[3] = iCELLigence real-time cell analysis; type: cell-based, human; settings: human, MCF-12A, 20 μM, relative to control, read-out: cell viability (% ± SEM)
Description: (§1) Therefore, compound 6j was applied in serial doses (2, 5, 10, 20, 50, and 100 μM) to MCF-7 cells and parallel to MCF-12A cells to determine the selectivity and safety. The treatments were performed 24 h after seeding the cells on system-specific biosensor-based plates. A total of 120 h of analyses were monitored, with cell viability measurements taken every 15 min. […] In addition, the viability percentage values for each dose in these periods were calculated and are summarized in Table 3 for MCF-7 and Table 4 for MCF-12A. […] In these treatments, cells were not killed dramatically after adding the highest two doses of 6j (100 and 50 μM); instead, they entered the stationary phase.
(§2) MCF-7 (Cat. no. HTB-22) (human estrogen receptor-positive breast cancer) and MCF-12A (Cat. no. CRL-10782) (human non-tumorigenic mammary epithelial) cell lines were obtained from the American Type Culture Collection (ATCC, Rockville, Maryland, USA). MCF-7 cells were maintained in Dulbecco’s modified Eagle’s medium (DMEM) (Biological Industries, Haemek, Israel) supplemented with 10% heat-inactivated fetal bovine serum (FBS) (Biowest, Nuaillé, France), 2 mM L-glutamine (Biological Industries, Haemek, Israel), 100 U/mL penicillin and 100 μg/mL streptomycin (Gibco, Waltham, MA, USA), and 2.5 μg/mL plasmocin (Invivogen, Toulouse, France) at 37 °C in a 5% CO2 humidified incubator. MCF-12A cells were cultured in a DMEM/F-12 Nutrient Mixture (Ham) (DMEM/F12 1:1 with HEPES and L-glutamine) (Gibco, Waltham, MA, USA) with 10% heat-inactivated FBS, 100 U/mL penicillin, 100 μg/mL streptomycin, and 10 μg/mL insulin (Humulin R, Lilly, Indianapolis, USA), 20 ng/mL epidermal growth factor (Abcam, Cambridge, UK), […] hydrocortisone (Dekort, Deva Ilac, Istanbul, Turkey), and 2.5 μg/mL plasmocin in a humidified atmosphere of 5% CO2 at 37 °C. The cells were routinely cultured in cell culture flasks and checked regularly under an inverted microscope. Cells reaching 80% confluency were passaged by treatment with 0.25% trypsin–EDTA. Total cell numbers were counted by the trypan blue dye exclusion method using a hemocytometer prior to the experiments.
(§3) The iCELLigence real-time cell analysis system was used to conduct a real-time and label-free examination of the activities of compound 6j on cells as we previously described.[62] In brief, following a background measurement with 200 μL of complete medium on iCELLigence E-plate L8, 100 μL of MCF-7 or MCF-12A cells was seeded at a density of 5.0 × 10^3 per well. During the 120 h monitoring, the system took impedance measurements via biosensors every 15 min. At the 24th h of incubation, the cells were treated with increasing concentrations of the 6j compound (2, 5, 10, 20, 50, and 100 μM) in duplicate. For cell culture experiments, compound 6j was dissolved in DMSO (Sigma, St. Louis, USA) at a stock concentration of 20 mM. For treatments, dilutions were prepared from 20 mM stock with a cell growth medium, with a final DMSO concentration of 0.1%. The medium containing 0.1% DMSO was also used as a negative control. […] Data were recorded by the iCELLigence software for 120 h and analyzed at the end of the study.

[4] = system: MCF-7 cells; assay: iCELLigence real-time cell analysis; type: cell-based, human; settings: Homo sapiens, MCF7, MCF-7, 20 μM, relative to control, read-out: cell viability (% ± SEM)
Description: as §1, §2, §3

Compound	IC50 [1] [µM]	anti-uterotrophic activity (inhibition of estrogen-induced uterine weight) [2] [%]	viability at 72 h, 20 µM ([3]; MCF-12A cells (non-tumorigenic mammary epithelial), 72 h) [%]	viability at 96 h, 20 µM ([3]; MCF-12A cells (non-tumorigenic mammary epithelial), 96 h) [%]	viability at 24 h, 20 µM ([3]; MCF-12A cells, 24 h) [%]	viability at 48 h, 20 µM ([3]; MCF-12A cells, 48 h) [%]	viability at 20 µM ([4]; 24 h) [%]	viability at 20 µM ([4]; 48 h) [%]	viability at 20 µM ([4]; 72 h) [%]	viability at 20 µM ([4]; 96 h) [%]
COc1ccc(C(=O)/C=C2/C(=O)Nc3ccc(Cl)cc32)cc1OC [Compound III]	3.59									
CC/C(=C(\c1ccccc1)c1ccc(OCCN(C)C)cc1)c1ccccc1 [tamoxifen, reference compound]		50	84 ± 0.01	84 ± 0.01	84 ± 0.01	84 ± 0.01	86.84 ± 0.02	86.84 ± 0.02	85.59 ± 0.04	80.31 ± 0.07
